Values of other authors as cited in patent US20030129188A1, “Integrin targeting compounds” (The Scripps Research Institute, priority 2001, published 2003).

Details: more potent than doxorubicin itself

Compound: COc1cccc2c1C(=O)c1c(O)c3c(c(O)c1C2=O)C[C@@](O)(C(=O)CO)C[C@@H]3O[C@H]1C[C@H](N2C=CCC2)[C@H](O)[C@H](C)O1 [2-pyrrolinodoxorubicin]
- potency relative to doxorubicin: 500-1000 times
